36 molecules from ChEMBL document CHEMBL1139124, “Oxazolidinones as novel human CCR8 antagonists” (Bioorg Med Chem Lett, 2007) can be followed below.

Structures are written as SMILES. Calls of active or inactive are those of the source. The rule behind the calls is not given here.

The target of series [1] is C-C chemokine receptor type 8 (Homo sapiens, UniProt P51685). Kind of series: Antagonist activity at human recombinant CCR8 expressed in RBL cells assessed as inhibition of I-309-induced intracellular calcium mobilization by FLIPR assay. Format: functional, cell-based.
C-C chemokine receptor type 8, sequence (P51685 whole entry): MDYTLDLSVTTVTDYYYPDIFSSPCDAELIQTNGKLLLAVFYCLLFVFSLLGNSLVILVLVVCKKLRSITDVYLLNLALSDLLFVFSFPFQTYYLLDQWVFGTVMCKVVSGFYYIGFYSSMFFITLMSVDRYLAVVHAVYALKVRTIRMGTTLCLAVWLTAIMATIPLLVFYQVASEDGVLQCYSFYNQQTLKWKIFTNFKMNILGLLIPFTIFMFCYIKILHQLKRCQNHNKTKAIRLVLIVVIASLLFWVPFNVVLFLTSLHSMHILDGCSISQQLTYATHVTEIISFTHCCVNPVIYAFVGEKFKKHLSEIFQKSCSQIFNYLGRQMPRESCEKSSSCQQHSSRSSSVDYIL
Series [2] can be described thus: Volume of distribution at steady state in mouse at 1 mg/kg, iv or 2 mg/kg, po. Format: ADME, organism-based. The settings on record: in vivo, read-out: Vdss.
In series [3] the test system is Liver microsomes. Kind of series: Intrinsic clearance in rat liver microsome. Format: ADME.
For series [4], the system named is Liver microsomes. The series can be described thus: Intrinsic clearance in human liver microsome. Format: ADME.
Series [5] is described as follows: Oral bioavailability in mouse at 2 mg/kg. Format: ADME, organism-based. The settings on record: in vivo.
The nature of series [6]: Half life in mouse at 1 mg/kg, iv or 2 mg/kg, po. The settings on record: in vivo. Format: ADME, organism-based.
The species entered for series [7] is Cavia porcellus. Kind of series: Antagonist activity at guinea pig CCR8 by FLIPR assay. Format: functional.
The nature of series [8]: Clearance in mouse blood at 1 mg/kg, iv or 2 mg/kg, po. Format: ADME, organism-based.
For series [9], the target named is T1, C-C chemokine receptor type 8 (Mus musculus) (UniProt P56484).
T1 sequence (whole entry): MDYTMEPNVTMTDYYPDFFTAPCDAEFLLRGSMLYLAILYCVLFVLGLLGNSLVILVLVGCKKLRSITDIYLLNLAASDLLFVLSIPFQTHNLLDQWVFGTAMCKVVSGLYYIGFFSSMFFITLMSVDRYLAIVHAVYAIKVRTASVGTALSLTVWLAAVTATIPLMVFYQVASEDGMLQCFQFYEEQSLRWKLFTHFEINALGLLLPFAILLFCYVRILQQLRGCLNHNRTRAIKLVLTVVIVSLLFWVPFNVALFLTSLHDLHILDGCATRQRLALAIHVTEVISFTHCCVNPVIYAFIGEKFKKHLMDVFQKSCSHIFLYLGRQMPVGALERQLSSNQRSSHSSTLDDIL
Kind of series: Antagonist activity at mouse CCR8 by FLIPR assay. Format: functional.

The target of series [10] is Voltage-gated inwardly rectifying potassium channel KCNH2 (Homo sapiens, UniProt Q12809). The series can be described thus: Inhibition of hERG. Format: toxicity.
Voltage-gated inwardly rectifying potassium channel KCNH2, sequence (Q12809 whole entry): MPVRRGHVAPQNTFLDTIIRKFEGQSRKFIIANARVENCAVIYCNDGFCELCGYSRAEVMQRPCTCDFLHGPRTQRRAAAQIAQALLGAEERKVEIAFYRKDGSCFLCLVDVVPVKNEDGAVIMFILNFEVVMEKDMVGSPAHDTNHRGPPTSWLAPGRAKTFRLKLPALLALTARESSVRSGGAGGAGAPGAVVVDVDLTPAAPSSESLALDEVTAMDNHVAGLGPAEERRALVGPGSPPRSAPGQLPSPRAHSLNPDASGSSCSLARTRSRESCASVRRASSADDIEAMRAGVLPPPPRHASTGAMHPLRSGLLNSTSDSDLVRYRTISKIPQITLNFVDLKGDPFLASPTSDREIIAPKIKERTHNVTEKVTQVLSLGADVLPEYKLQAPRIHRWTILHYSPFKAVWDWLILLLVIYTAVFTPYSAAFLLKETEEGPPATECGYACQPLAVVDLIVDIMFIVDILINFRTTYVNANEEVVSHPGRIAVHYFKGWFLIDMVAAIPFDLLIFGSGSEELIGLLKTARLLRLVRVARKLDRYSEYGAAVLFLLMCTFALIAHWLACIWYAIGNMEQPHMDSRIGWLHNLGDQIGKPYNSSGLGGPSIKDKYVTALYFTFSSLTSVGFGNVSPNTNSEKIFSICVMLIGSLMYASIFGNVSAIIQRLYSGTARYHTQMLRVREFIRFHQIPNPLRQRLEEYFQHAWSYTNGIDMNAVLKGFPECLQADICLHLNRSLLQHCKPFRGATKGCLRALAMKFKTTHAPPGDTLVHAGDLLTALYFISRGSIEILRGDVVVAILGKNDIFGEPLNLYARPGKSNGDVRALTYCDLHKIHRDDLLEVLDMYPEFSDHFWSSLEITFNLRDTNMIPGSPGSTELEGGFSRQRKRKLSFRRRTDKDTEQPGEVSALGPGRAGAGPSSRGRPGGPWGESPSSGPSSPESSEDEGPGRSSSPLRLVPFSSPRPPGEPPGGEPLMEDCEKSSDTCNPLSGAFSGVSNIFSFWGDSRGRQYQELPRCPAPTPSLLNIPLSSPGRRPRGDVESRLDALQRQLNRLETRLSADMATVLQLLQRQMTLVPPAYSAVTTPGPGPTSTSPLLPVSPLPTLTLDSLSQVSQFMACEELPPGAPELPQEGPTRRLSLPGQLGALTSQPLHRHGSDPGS
The species named for series [11] is Homo sapiens. The series can be described thus: Selectivity for hERG over CCR8.
The species named for series [12] is Rattus norvegicus. The series can be described thus: Antagonist activity at rat CCR8 by FLIPR assay. Format: functional.

On to `CCCCCCN1CCC(N2CC(c3ccnc4ccc(OC)cc34)OC2=O)CC1` (centres undefined), for which the IC50 in [1] is 501 nM.
On the same count and under the same terms, in the case of `O=C1OC(c2ccncc2)CN1C1CCN(Cc2cc3ccccc3[nH]2)CC1` (centres undefined) it was more than 50100 nM.
Still for that read-out and setting: in the case of `COc1ccc2nccc(C3CN(C4CCCCN(Cc5cc6ccccc6[nH]5)C4)C(=O)O3)c2c1` (centres undefined) it was more than 50100 nM.
On to `COc1ccc2nccc([C@@H]3CN(C4CCN(Cc5cc6ccccc6[nH]5)CC4)C(=O)O3)c2c1`, for which the Vd in series [2] is 2.4 L/kg. Moreover, the CL in series [3] and in series [4] was 7 mL/min/g in each case. In series [5], this molecule returned a bioavailability of 18%. Further, the half-life in [6] was 1 h. Also, the outcome in series [7], in [9] and in [12] was inactive. Also, the clearance in series [8] is 38 mL/min/kg. Further, the figures for the IC50 in [10] and in [1] were 1580 nM and 20 nM, respectively. Moreover, the Selectivity ratio in series [11] was 79.
In the case of `COc1ccc2nccc(C3CN(C4CCN(Cc5cc6ccccc6[nH]5)C4)C(=O)O3)c2c1` (centres undefined), the IC50 in [1] was more than 50100 nM.
The same measure, in the same setting: the same measure for `COc1ccc2nccc(C3CN(C4CCN(Cc5ccc6ccccc6n5)CC4)C(=O)O3)c2c1` (centres undefined): 3160 nM; for `O=C1OC(c2ccc3ccccc3n2)CN1C1CCN(Cc2cc3ccccc3[nH]2)CC1` (centres undefined): more than 50100 nM.
On the same count and under the same terms, in the case of `COc1ccc2nccc(C3CN(CCCN(C)Cc4cc5ccccc5[nH]4)C(=O)O3)c2c1` (centres undefined) it was 6310 nM; in that of `COc1ccc2nccc(C3CN(C4CCN(Cc5cc6ccccc6n5C)CC4)C(=O)O3)c2c1` (centres undefined), 3160 nM; in that of `COc1ccc2nccc(C3CN(C4CCN(Cc5ccccc5)CC4)C(=O)O3)c2c1` (centres undefined), 12600 nM.
Still for that read-out and setting: in the case of `COc1ccc2nccc(C3CN(CCCNCc4cc5ccccc5[nH]4)C(=O)O3)c2c1` (centres undefined) it was 1580 nM; in that of `COc1ccc2nccc(C3CN(C4CCN(C)CC4)C(=O)O3)c2c1` (centres undefined), more than 50100 nM.
Consider `COc1ccc2nccc(C3CN(CC4CCCN(Cc5cc6ccccc6[nH]5)C4)C(=O)O3)c2c1` (centres undefined), for which the IC50 in series [1] is more than 50100 nM.
For `COc1ccc2nccc(C3CN(C4CCN(Cc5c[nH]c6ccccc56)CC4)C(=O)O3)c2c1` (centres undefined), the IC50 in series [1] was more than 50100 nM.
For the molecule `COc1ccc2nccc(C3CN(C4CCN(Cc5ccc(C)c(C)c5)CC4)C(=O)O3)c2c1` (centres undefined), the IC50 was 6310 nM in series [10] and 39.8 nM in series [1]. The Selectivity ratio in series [11] came out at 158.
Regarding `COc1ccc2nccc(C3CN(C4CCN(Cc5cc6ccccc6[nH]5)CC4)C(=O)O3)c2n1` (centres undefined), the IC50 in [1] is 31.6 nM.
On the same count and under the same terms, the same measure for `COc1ccc2nccc(C3CN(C4CCN(Cc5ccccc5Cl)CC4)C(=O)O3)c2c1` (centres undefined): more than 50100 nM.
On the same count and under the same terms, the same measure for `COc1ccc2nccc(C3CN(C4CCN(Cc5ccc6ccccc6c5)CC4)C(=O)O3)c2c1` (centres undefined): 1260 nM; for `COc1ccc2nccc(C3CN(CC4CCN(Cc5cc6ccccc6[nH]5)CC4)C(=O)O3)c2c1` (centres undefined): more than 50100 nM; for `COc1ccc2nccc(C3CN(C4CCN(CC5CCCCC5)CC4)C(=O)O3)c2c1` (centres undefined): 7940 nM.
For `COc1ccc2nccc(C3CN(C4CCN(Cc5cccc(Cl)c5)CC4)C(=O)O3)c2c1` (centres undefined), the IC50 in series [1] is 6310 nM.
With `COc1ccc2nccc(C3CN(C4CCN(Cc5cc6ccccc6s5)CC4)C(=O)O3)c2c1` (centres undefined), the IC50 in series [1] is 794 nM.
As to `COc1ccc2nccc(C3CN(C4CCN(Cc5cc6ccccc6o5)CC4)C(=O)O3)c2c1` (centres undefined), the IC50 in [1] was 1260 nM.
Same read-out and setting: the same measure for `COc1ccc2nccc(C3CN(C4CCN(Cc5ccc(Cl)c(Cl)c5)CC4)C(=O)O3)c2c1` (centres undefined): 126 nM.
On the same count and under the same terms, the same measure for `COc1ccc2nccc(C3CN(C4CCN(S(=O)(=O)c5ccc(Cl)c(Cl)c5)CC4)C(=O)O3)c2c1` (centres undefined): more than 50100 nM; for `COc1ccc(CN2CCC(N3CC(c4ccnc5ccc(OC)cc45)OC3=O)CC2)cc1` (centres undefined): 1260 nM.
The same measure, in the same setting: the same measure for `COc1ccc2nccc(C3CN(C4CCN(Cc5ccc(-c6ccccc6)cc5)CC4)C(=O)O3)c2c1` (centres undefined): more than 50100 nM; for `COc1ccc2nccc(C3CN(C4CCN(Cc5ccc(Br)cc5)CC4)C(=O)O3)c2c1` (centres undefined): 50.1 nM; for `COc1ccc2nccc(C3CN(C4CCN(CCCc5ccccc5)CC4)C(=O)O3)c2c1` (centres undefined): 251 nM.
Turning to `COc1ccc2nccc(C3CN(C4CCN(Cc5ccc(C#N)cc5)CC4)C(=O)O3)c2c1` (centres undefined), the IC50 in [1] was 12600 nM.
Still for that read-out and setting: in the case of `COc1ccc2nccc(C3CN(C4CCN(Cc5cc6ccccc6[nH]5)CC4)C(=O)O3)c2c1` (centres undefined) it was 25.1 nM.
Still for that read-out and setting: in the case of `O=C1OC(c2cccc3ccccc23)CN1C1CCN(Cc2cc3ccccc3[nH]2)CC1` (centres undefined) it was more than 50100 nM; in that of `COc1ccc2nccc(C3CN(C4CCN(C(=O)c5ccc(Cl)c(Cl)c5)CC4)C(=O)O3)c2c1` (centres undefined), 6310 nM.
As to `O=C1OC(c2ccnc3ccccc23)CN1C1CCN(Cc2cc3ccccc3[nH]2)CC1` (centres undefined), the IC50 in series [1] is 1000 nM.
Consider `COc1ccc2nccc(C3CN(C4CCN(Cc5ccc(Cl)cc5)CC4)C(=O)O3)c2c1` (centres undefined), for which the half-inhibitory concentration (IC50) in series [1] is 631 nM.
For the molecule `O=C1OC(c2cnc3ccccc3c2)CN1C1CCN(Cc2cc3ccccc3[nH]2)CC1` (centres undefined), the IC50 in series [1] was more than 50100 nM.
